Laboratory results taken from patent US20050004007A1, “Promotion of adoptosis in cancer cells by co-administration of cyclin dependent kinase inhibitiors and cellular differentiation agents” (priority 2000, published 2005).

What was measured:
[1] = system: XIAP; experiment: Western analysis of XIAP in U937 cells; format: cell-based, human; settings: FP 100 nM, SB 1 mM
Method: Alternatively, whole cell-pellets were washed twice in PBS, resuspended in PBS, and lysed by the addition of I volume of loading buffer. Lysates were boiled for 10 min, centrifuged at 12,800 g for 5 min and quantified using Coomassie protein assay reagent (Pierce, Rockfold, Ill.). 25 μg of total proteins per point were separated by SDS-PAGE and electro-blotted to nitrocellulose. The blots were blocked in 5% non-fat milk in PBS-T and probed for 1 h with the appropriate dilution of primary antibody. Blots were washed 3×10 min in PBS-T and then incubated with a 1:2000 dilution of peroxidase-conjugated secondary antibody for 1 h at room temperature. Blots were again washed 3×10 min in PBS-T and then developed by enhanced chemiluminesence. Where indicated, blots were stripped and re-probed with antibodies directed against actin. […]

[2] = system: HL60 human leukemia cells; experiment: loss of mitochondrial membrane potential (DiOC6 uptake); format: cell-based; settings: 3, 5, or 10 μM ATRA and 80 nM FP
Method: Assessment of mitochondrial membrane potential. At designated times, 1 ml aliquots of cells (2×10^5) were harvested and incubated with 40 nM DiOC6 for 15 minutes at 25° C. as previously described [Zamzami et al 1995]or at 37° C. Samples were analyzed using a Becton Dickinson FACScan flow cytometer (excitation λ=488 nm; emission λ=525 nm). […] Data acquisition and analysis was performed using […] Software (Becton Dickinson, Mansfield, Mass.).

## CN1CC[C@H](c2c(O)cc(O)c3c(=O)cc(-c4ccccc4Cl)oc23)[C@H](O)C1 [FP, Flavopiridol]
[1]
  levels of XIAP: modest decreases
[2]
  loss of mitochondrial membrane potential (Δψm): no effect
